Laboratory results as given in ChEMBL document CHEMBL1135491, “Novel 2-oxoamide inhibitors of human group IVA phospholipase A(2)” (J Med Chem, 2002).
The source made the active and inactive calls. No cut-off for these calls is given here.

How the values were obtained:
[1] = target: T1, Cytosolic phospholipase A2 (Homo sapiens) (UniProt P47712); assay: Inhibitory activity against human Group IVA Phospholipase A2 (GIVA PLA2)
T1 sequence (whole entry): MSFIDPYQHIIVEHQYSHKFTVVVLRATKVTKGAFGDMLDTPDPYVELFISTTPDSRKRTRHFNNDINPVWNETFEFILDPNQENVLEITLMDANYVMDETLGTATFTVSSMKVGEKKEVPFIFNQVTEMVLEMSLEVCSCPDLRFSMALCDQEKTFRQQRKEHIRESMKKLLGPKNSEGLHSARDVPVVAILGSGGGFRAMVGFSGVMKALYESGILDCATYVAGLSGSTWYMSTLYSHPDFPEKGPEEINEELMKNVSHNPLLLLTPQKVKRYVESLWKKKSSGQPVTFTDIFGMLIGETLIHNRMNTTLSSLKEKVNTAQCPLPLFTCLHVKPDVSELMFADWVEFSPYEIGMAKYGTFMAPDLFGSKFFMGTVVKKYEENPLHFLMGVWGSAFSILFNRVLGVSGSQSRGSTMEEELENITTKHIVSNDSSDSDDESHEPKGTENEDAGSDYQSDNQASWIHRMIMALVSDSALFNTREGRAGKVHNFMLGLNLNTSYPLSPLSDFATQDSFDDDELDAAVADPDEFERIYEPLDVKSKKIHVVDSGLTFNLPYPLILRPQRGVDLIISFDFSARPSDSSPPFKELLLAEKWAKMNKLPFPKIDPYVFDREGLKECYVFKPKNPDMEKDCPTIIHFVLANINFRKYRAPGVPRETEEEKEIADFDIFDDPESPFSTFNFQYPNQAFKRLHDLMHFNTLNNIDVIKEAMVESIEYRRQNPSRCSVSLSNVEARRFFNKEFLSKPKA

[2] = target: T1, Cytosolic phospholipase A2 (Homo sapiens); assay: Inhibitory activity against human Group IVA Phospholipase A2 (GIVA PLA2); Inactive
[3] = target: T1, Cytosolic phospholipase A2 (Homo sapiens); assay: Inhibitory activity against human Group IVA Phospholipase A2 (GIVA PLA2), at 0.02 mole fraction

XI50 [1] | IA [2] | Structure (SMILES) | further results
0.009 |  | CCCCCCCCCCC(=O)C(=O)N[C@@H](CCCC)CCC(=O)O | 
0.068 |  | CCCCCCCCCCC(=O)C(=O)N[C@H](CCCC)CCC(=O)O | 
 | inactive | CCCCCCCC/C=C\CCCCCCCCNC(=O)C(=O)CCCCCCCCCCCCCC | 
 |  | CCCCCCCCCCCCCCC(=O)C(=O)NCCCCCC | inhibition [3]: 22%
 | inactive | CCCCCCCC/C=C\CCCCCCCCNC(=O)C(=O)CCCCCC | 
 | inactive | CCCCCCCCCCCCCC(=O)C(N)=O | 
0.017 |  | CCCCCCCCCCCCCCC(=O)C(=O)NCCCC(=O)O | 
 | inactive | CCCCCCC(=O)C(=O)NCCCC(=O)O | 
